According to patent US11541029B2, “High penetration compositions and their applications” (Techfields Pharma Co., Ltd., priority 2008, dated 2023):
One block for each compound: values may come before it.

Key:
[1] = Amount of ibuprofen in rat plasma and brain, 0.3 mmol/kg
Description: The plasma or brain tissue (the whole brain was washed with pH 7.4 buffer for 3 times) was homogenized immediately in 3-5 ml of methanol, using a tissue tearor at 30,000 rpm (about 2 min.).

[2] = Amount of ibuprofen in Beagle dogs synovial fluid, 0.3 mmol/kg; type: in vivo
[3] = Distribution in organs of rats after transdermal HPC of ibuprofen; settings: 2 hr after 0.3 mmol/kg HPC of ibuprofen (10% aqueous) on shaved back
Description: (§1) A HPC changed quickly to its parent drug in vivo, so the concentration was the concentration of its parent drug or related compound.

[4] = tested on: rats given sterilized E. coli suspension as a pyrogen; assay: Antipyretic activity of ibuprofen and its HPC (Study A); type: in vivo
[5] = Distribution in organs of rabbits after transdermal HPC of ibuprofen; type: in vivo; settings: for distribution in brain / distribution in cartilage pads / distribution in heart / distribution in prostate gland / distribution in testis: 2 hr after 0.3 mol/kg HPC of ibuprofen (10% aqueous) on shaved back; for distribution in Myelin: 2 hr after HPC of ibuprofen (10% aqueous) on shaved back
Description: as §1

[6] = Amounts of ibuprofen in Beagle dogs cartilage tissue; type: in vivo; settings: 18 hours after administration
[7] = Fluorescence microscopy of HPC crossing rat skin, brain and other organs; type: in vivo; settings: 15 minutes after 30 mg in 0.5 ml ethanol on back of rats
Description: For fluorescence microscopy studies, 30 mg of 5-(dimethylamino)naphthalene-1-sulfonic acid or its HPC, N-2-diethylaminoethyl 5-dimethylamino-1-naphthalenesulfonamide.HCl salt was dissolved in 0.5 ml of 75% ethanol and applied to the shaved back of rats (3×3 cm). 15 minutes or 3 hours later, the rat was killed and organs were taken out and frozen. The frozen tissues (brain, liver, and muscle) were sliced and stained with Haematoxylin and eosin (H&E) staining. Results were shown picture 1-9 in FIG. 9.

Solubility in water = type: physicochemical
Description: 30 g (0.1 mol) of sodium 9-cis-retinoate was dissolved in 100 ml of acetonitrile. 26.1 g (0.1 mol) of 2-Bromo-N,N-diethylethylamine.HBr was added into the reaction mixture. The mixture was stirred for overnight at RT. The solvents were evaporated off. 200 ml of ethanol was added into the residue. The solid was removed by filtration. The solution was evaporated to dryness. 100 ml of ethyl acetate was added into the reaction mixture. Hexane (100 ml) was added. The solid product was collected by filtration. After drying, it yielded 36 g of the desired product (75%).

[8] = Distribution in milk of sheep after transdermal HPC of ibuprofen; type: in vivo; settings: female, topical, 2 hr after 0.3 mmol/kg diethylaminoethyl 2-(ρ-isobutylphenyl)propionate.citric acid salt on back, read-out: amount found in the milk
Description: as §1

[9] = tested on: spontaneously hypertensive rats (SLAC/SHR); assay: Anti-hypertensive activity in spontaneously hypertensive rats; type: in vivo; settings: 50 mg/kg (10% in water) on back skin once per day
Description: 20 spontaneously hypertensive rats (SLAC/SHR, 19 weeks old, 300-350 g) were divided into 2 groups randomly. In group A, pure water (0.5 ml) was applied to the rats' back skin (˜5 cm^2, fur was cut off) once per day for 6 weeks. In groups B, 50 mg/kg of diethylaminoethyl acetylsalicylate citric acid salt (10% in water) was applied to the rats' back skin (˜5 cm^2, fur was cut off) once per day.

[10] = tested on: Smyth chickens (animal models of vitiligo); assay: Anti-vitiligo activity in Smyth chickens; type: in vivo; settings: 50 mg/kg (5% in pure water) on discoloured lesions once per day for 10 weeks
Description: 20 Smyth chickens (animal models of vitiligo) were allocated to 2 groups. Group A (n=10) chickens received 1 ml of pure water on discoloured lesions once per day for 10 weeks. Group B (n=10) Smyth chicken received 50 mg/kg of diethylaminoethyl acetylsalicylate citric acid (5% in pure water) on discoloured lesions once per day for 10 weeks. In the untreated control group A, the lesions were worse and feather loss continued. In the diethylaminoethyl acetylsalicylate citric acid treated group B, the discoloured lesions disappeared and feathers regrew with 3-6 weeks.

mice (aging) = assay: Lifespan of mice; type: in vivo
Description: 60 mice (10 weeks old, 30.3±3.5 g) were divided into groups A and B. In group A (n=30), 0.05 ml of distilled water (˜2 cm^2) was applied to the back of mice once per day. In group B (n=30), […] of diethylaminoethyl acetylsalicylate citric acid (the HPC of aspirin) in 0.05 ml of water (10%) was applied to the back of mice (˜2 cm^2) once per day.

[11] = 20 mg/kg, transdermally, t = 0 min.
[12] = 20 mg/kg, transdermally, t = 90 min.
[13] = 20 mg/kg, transdermally, t = 180 min.
[14] = 20 mg/kg, transdermally, t = 270 min.
[15] = 50 mg/kg, transdermally, t = 0 min.
[16] = 50 mg/kg, transdermally, t = 90 min.
[17] = 50 mg/kg, transdermally, t = 180 min.
[18] = 50 mg/kg, transdermally, t = 270 min.
[19] = 100 mg/kg, orally, t = 270 min.
[20] = 100 mg/kg, transdermally, t = 0 min.
[21] = 100 mg/kg, transdermally, t = 90 min.
[22] = 100 mg/kg, transdermally, t = 180 min.
[23] = 100 mg/kg, transdermally, t = 270 min.

- ibuprofen in Plasma (18 hr) ([1]; intramuscularly): 0.5 ± 0.2 nmol/mL
- ibuprofen in Plasma (18 hr) ([1]; transdermally): 2.9 ± 2 nmol/mL
- ibuprofen in synovial fluid ([2]; intramuscularly, 1 hour): 28.1 ± 8.1 nmol/g
- ibuprofen in synovial fluid ([2]; intramuscularly, 8 hours): 22.1 ± 4.2 nmol/g
- ibuprofen in synovial fluid ([2]; intramuscularly, 18 hours): 4.2 ± 1.1 nmol/g
- ibuprofen in synovial fluid ([2]; transdermally, 1 hour): 11.6 ± 4.2 nmol/g
- ibuprofen in synovial fluid ([2]; transdermally, 8 hours): 28.2 ± 4.7 nmol/g
- ibuprofen in synovial fluid ([2]; transdermally, 18 hours): 11.2 ± 3.2 nmol/g
- distribution in brain [3]: 0.1 ± 0.05 nmol/g
- distribution in heart [3]: 0.5 ± 0.2 nmol/g
- distribution in kidney [3]: 0.4 ± 0.2 nmol/g
- distribution in liver [3]: 0.2 ± 0.2 nmol/g
- distribution in pancreas [3]: 0.5 ± 0.3 nmol/g
- distribution in stomach [3]: 0.3 ± 0.1 nmol/g
- distribution in brain [5]: 0.4 ± 0.2 nmol/g
- distribution in cartilage pads [5]: 0.4 ± 0.2 nmol/g
- distribution in heart [5]: 0.3 ± 0.1 nmol/g
- distribution in prostate gland [5]: 0.5 ± 0.3 nmol/g
- distribution in testis [5]: 0.5 ± 0.3 nmol/g
- distribution in Myelin [5]: 0.60 ± 0.2 nmol/g
- Amount of ibuprofen in cartilage tissue ([6]; intramuscularly): 17.2 ± 6.1 nmol/g
- Amount of ibuprofen in cartilage tissue ([6]; transdermally): 22.5 ± 4.5 nmol/g
SMILES: CCN(CC)CCOC(=O)C(C)c1ccc(CC(C)C)cc1.Cl (stereo not drawn) [diethylaminoethyl 2-(ρ-isobutylphenyl)propionate.HCl]
- body temperature ([4]; 20 mg/kg, orally, t = 0 min.): 37.6 ± 0.3
- body temperature ([4]; 20 mg/kg, orally, t = 90 min.): 37.1 ± 0.3
- body temperature ([4]; 20 mg/kg, orally, t = 180 min.): 36.9 ± 0.3
- body temperature ([4]; 20 mg/kg, orally, t = 270 min.): 36.8 ± 0.2
- body temperature [4, 11]: 37.6 ± 0.2
- body temperature [4, 12]: 36.7 ± 0.4
- body temperature [4, 13]: 36.6 ± 0.5
- body temperature [4, 14]: 36.5 ± 0.3
- body temperature ([4]; 50 mg/kg, orally, t = 0 min.): 37.6 ± 0.3
- body temperature ([4]; 50 mg/kg, orally, t = 90 min.): 36.6 ± 0.3
- body temperature ([4]; 50 mg/kg, orally, t = 180 min.): 36.5 ± 0.3
- body temperature ([4]; 50 mg/kg, orally, t = 270 min.): 36.4 ± 0.2
- body temperature [4, 15]: 37.5 ± 0.4
- body temperature [4, 16]: 36.5 ± 0.3
- body temperature [4, 17]: 36.4 ± 0.3
- body temperature [4, 18]: 36.5 ± 0.2
- body temperature ([4]; 100 mg/kg, orally, t = 0 min.): 37.5 ± 0.4
- body temperature ([4]; 100 mg/kg, orally, t = 90 min.): 36.5 ± 0.3
- body temperature ([4]; 100 mg/kg, orally, t = 180 min.): 36.4 ± 0.3
- body temperature [4, 19]: 36.4 ± 0.2
- body temperature [4, 20]: 37.5 ± 0.3
- body temperature [4, 21]: 36.5 ± 0.2
- body temperature [4, 22]: 36.4 ± 0.3
- body temperature [4, 23]: 36.5 ± 0.2

SMILES: CCN(CC)CCNS(=O)(=O)c1cccc2c(N(C)C)cccc12.Cl [N-2-diethylaminoethyl 5-dimethylamino-1-naphthalenesulfonamide.HCl salt]
- fluorescence chemical entering brain, muscle, and liver [7]: large amount of the fluorescence chemical had entered the brain, muscle, and liver

SMILES: Br.CCN(CC)CCOC(=O)/C=C(C)/C=C/C=C(C)\C=C\C1=C(C)CCCC1(C)C [N,N-diethylaminoethyl 9-cis-retinoate.HBr]
- solubility in water (Solubility in water): 30 mg/mL

- concentration at 1 h ([1]; male, rat, in vivo): 1430 ± 68 µM
- concentration at 8 h ([1]; male, rat, in vivo): 313 ± 39 µM
- ibuprofen in synovial fluid ([2]; intramuscularly, 1 hour): 3.2 ± 0.3 nmol/g
- ibuprofen in synovial fluid ([2]; intramuscularly, 8 hours): 0.3 ± 0.1 nmol/g
- concentration at 2 h [8]: 30 ± 8 µM
- distribution in brain [5]: 5 ± 1 nmol/g
- distribution in cartilage pads [5]: 8 ± 2 nmol/g
- distribution in heart [5]: 10 ± 5 nmol/g
- distribution in prostate gland [5]: 18 ± 7 nmol/g
- distribution in testis [5]: 11 ± 4 nmol/g
- distribution in Myelin [5]: 25 ± 8 nmol/g
SMILES: CC(C)Cc1ccc(C(C)C(=O)O)cc1 (stereo not drawn) [ibuprofen, 2-(ρ-isobutylphenyl)propionic acid, reference compound]
- body temperature ([4]; 20 mg/kg, orally, t = 0 min.): 37.5 ± 0.2
- body temperature ([4]; 20 mg/kg, orally, t = 90 min.): 37.6 ± 0.3
- body temperature ([4]; 20 mg/kg, orally, t = 180 min.): 37.5 ± 0.3
- body temperature ([4]; 20 mg/kg, orally, t = 270 min.): 37.4 ± 0.3
- body temperature [4, 11]: 37.5 ± 0.3
- body temperature [4, 12]: 37.5 ± 0.5
- body temperature [4, 13]: 37.8 ± 0.4
- body temperature [4, 14]: 37.9 ± 0.3
- body temperature ([4]; 50 mg/kg, orally, t = 0 min.): 37.5 ± 0.3
- body temperature ([4]; 50 mg/kg, orally, t = 90 min.): 37.6 ± 0.3
- body temperature ([4]; 50 mg/kg, orally, t = 180 min.): 37.2 ± 0.3
- body temperature ([4]; 50 mg/kg, orally, t = 270 min.): 37.1 ± 0.3
- body temperature [4, 15]: 37.6 ± 0.3
- body temperature [4, 16]: 37.8 ± 0.3
- body temperature [4, 17]: 37.9 ± 0.3
- body temperature [4, 18]: 38.1 ± 0.3
- body temperature ([4]; 100 mg/kg, orally, t = 0 min.): 37.5 ± 0.3
- body temperature ([4]; 100 mg/kg, orally, t = 90 min.): 37.4 ± 0.4
- body temperature [4, 19]: 36.7 ± 0.3
- body temperature [4, 20]: 37.6 ± 0.4
- body temperature [4, 21]: 37.9 ± 0.4
- body temperature [4, 22]: 37.8 ± 0.3
- body temperature [4, 23]: 37.8 ± 0.2
- antipyretic activity ([4]; transdermal administration): did not show any antipyretic activity

SMILES: CCN(CC)CCOC(=O)c1ccccc1OC(C)=O.O=C(O)CC(O)(CC(=O)O)C(=O)O [diethylaminoethyl acetylsalicylate citric acid salt]
- Blood pressure (week 0), Systolic [9]: 184.6 ± 15.1 mmHg
- Blood pressure (week 0), diastolic [9]: 118.2 ± 13.1 mmHg
- Blood pressure (week 2 to week 6), Systolic [9]: 115.4 ± 14.6 mmHg
- Blood pressure (week 2 to week 6), diastolic [9]: 83.5 ± 12.1 mmHg
- time until discoloured lesions disappeared and feathers regrew [10]: 3-6 weeks
- Lifespan (mice (aging); 0.5 mg in 0.05 ml of water on back once per day, n=30): 38.2 ± 4.6 month
- increase of the lifespan of mice (mice (aging); mouse, in vivo): 27%
